According to patent US8012980B2, “Isoquinolinone derivatives” (AstraZeneca AB, priority 2008, dated 2011):
Structures can show the parent of a compound that is named as a salt.

target: T1, human active recombinant p38 (p38α) (Homo sapiens, UniProt Q16539); test: p38 Alpha Enzyme Assay (AlphaScreen, biotinylated-ATF2 substrate); type: biochemical; conditions: means of replicate determinations; pre-incubated for 4 hours at 37° C.; SD of assay between 0.2 and 0.3 log units
T1 construct: 6His
Protocol: The ability of the compounds of formula (I) to inhibit p38 kinase may be determined using the following biological assay:
Enzyme assays were performed in polypropylene 96 well plates. The following solutions were added to each well; 10 μL of compound dilutions in assay buffer (20 mM HEPES pH 7.4, containing 20 mM magnesium acetate, 0.005% (w/v) Tween-20, 10 mM DTT) containing 1% (v/v) DMSO or assay buffer containing 1% (v/v) DMSO alone, 70 μL of assay buffer containing 36 nM substrate (biotinylated-ATF2) and 10 μL of an appropriate dilution of human active recombinant p38-6H is tagged. Depending on batch of p38, an appropriate dilution was typically a 5 nM solution to give a final enzyme concentration of 0.5 nM. At this stage, background control wells also received 50 μL of AlphaScreen quench buffer (10 mM HEPES pH 7.4 containing 100 mM EDTA, 0.2% (w/v) bovine serum albumin). The plate was covered, pre-incubated for 4 hours at 37° C. and the enzyme reaction initiated by addition of 10 μL 1 mM ATP. After incubation for a further 45 minutes at 37° C., the reaction was stopped by addition of 50 μL quench reagent and 50 μL of the quenched reaction mixture transferred to an opaque, white 96-well plate. Detection reagent, 25 μL of 10 mM HEPES pH 7.4 containing 100 mM EDTA, 0.2% (w/v) bovine serum albumin, 0.3 nM anti phosphoATF2 antibody and 25 μg/mL of AlphaScreen protein A acceptor and donor beads' (PerkinElmer Inc.), was added to all wells in a darkened room, the plate sealed and left in the dark for at least 5 hours before AlphaScreen readings were taken using a Perkin Elmer EnVision reader. Total, uninhibited activity was determined from assays performed in each assay plate. The mean control in the absence of p38 activity was subtracted from each well. Data were expressed as percent inhibition of total activity using equation 1. Percent Inhibition=100*(1−Test/Control) Eq.1 Where . . . Test=p38 kinase activity in the presence of compound Control=p38 kinase activity in the absence of compound.
pIC50 is defined as the logarithm of the reciprocal of the concentration of compound required for 50% reduction in total p38 kinase activity.
The standard deviation of the p38 enzyme inhibition assay is between 0.2 and 0.3 log units.

T1 sequence (Q16539 whole entry): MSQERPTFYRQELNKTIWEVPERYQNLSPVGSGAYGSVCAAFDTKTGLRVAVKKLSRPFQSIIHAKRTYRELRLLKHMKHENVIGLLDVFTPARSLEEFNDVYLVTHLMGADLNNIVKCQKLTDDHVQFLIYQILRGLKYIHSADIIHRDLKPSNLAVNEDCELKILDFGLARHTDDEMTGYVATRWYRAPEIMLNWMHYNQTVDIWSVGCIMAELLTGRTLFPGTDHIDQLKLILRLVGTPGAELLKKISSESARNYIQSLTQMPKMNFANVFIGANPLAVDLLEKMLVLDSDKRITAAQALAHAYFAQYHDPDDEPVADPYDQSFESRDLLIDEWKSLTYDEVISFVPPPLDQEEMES

Question: Which “p38α inhibition Mean pIC50” value does the source give for `Cc1c(F)cc(C(=O)NC2CC2)cc1-c1ccc2c(=O)n(CC(C)(C)CO)cc(CN3CCC[C@H](N)C3)c2c1` [Example 25, 3-[4-{[(3S)-3-Aminopiperidin-1-yl]methyl}-2-(3-hydroxy-2,2-dimethylpropyl)-1-oxo-1,2-dihydroisoquinolin-6-yl]-N-cyclopropyl-5-fluoro-4-methylbenzamide] here?
Answer: 8.8

same assay, conditions: means of replicate determinations; pre-incubated for 4 hours at 37° C.; SD of assay between 0.2 and 0.3 log units; read-out: p38α inhibition Mean pIC50 (converted)

Question: `Cc1c(F)cc(C(=O)NC2CC2)cc1-c1ccc2c(=O)n(CC(C)(C)CO)cc(CN3CCNC[C@@H]3CO)c2c1` [Example 22, N-Cyclopropyl-3-fluoro-5-[2-(3-hydroxy-2,2-dimethylpropyl)-4-{[(2R)-2-(hydroxymethyl)piperazin-1-yl]methyl}-1-oxo-1,2-dihydroisoquinolin-6-yl]-4-methylbenzamide] was tested. Which IC50 did it give?
Answer: 0.158 nM

Question: With `Cc1c(F)cc(C(=O)NC2CC2)cc1-c1ccc2c(=O)n(CC(C)(C)CO)cc(CN3CCCNCC3)c2c1` [Example 23, N-Cyclopropyl-3-[4-(1,4-diazepan-1-ylmethyl)-2-(3-hydroxy-2,2-dimethylpropyl)-1-oxo-1,2-dihydroisoquinolin-6-yl]-5-fluoro-4-methylbenzamide] as the compound, how does the IC50 read?
Answer: 0.316 nM

Question: Which IC50 does the source give for `Cc1c(F)cc(C(=O)NC2CC2)cc1-c1ccc2c(=O)n(CC(C)(C)CO)cc(CN3CCN(C)CC3)c2c1` [Example 24, N-Cyclopropyl-3-fluoro-5-{2-(3-hydroxy-2,2-dimethylpropyl)-4-[(4-methylpiperazin-1-yl)methyl]-1-oxo-1,2-dihydroisoquinolin-6-yl}-4-methylbenzamide] here?
Answer: 0.631 nM

Question: Which IC50 does the source give for `Cc1c(F)cc(C(=O)NC2CC2)cc1-c1ccc2c(=O)n(CC3(CO)CCC3)cc(CN3CCNCC3)c2c1` [Example 27, N-Cyclopropyl-3-fluoro-5-[2-{[1-(hydroxymethyl)cyclobutyl]methyl}-1-oxo-4-(piperazin-1-ylmethyl)-1,2-dihydroisoquinolin-6-yl]-4-methylbenzamide] here?
Answer: 0.316 nM

Question: `Cc1c(F)cc(C(=O)NC2CC2)cc1-c1ccc2c(=O)n(CC(C)(C)CO)cc(CN3CCNC[C@@H]3C)c2c1` [Example 28, N-Cyclopropyl-3-fluoro-5-[2-(3-hydroxy-2,2-dimethylpropyl)-4-{[(2S)-2-methylpiperazin-1-yl]methyl}-1-oxo-1,2-dihydroisoquinolin-6-yl]-4-methylbenzamide] was tested. Which IC50 did it give?
Answer: 0.794 nM

Question: With `Cc1c(F)cc(C(=O)NC2CC2)cc1-c1ccc2c(=O)n(CC(C)(C)CO)cc(CN3CCN[C@@H](C)C3)c2c1` [Example 29, N-Cyclopropyl-3-fluoro-5-[2-(3-hydroxy-2,2-dimethylpropyl)-4-{[(3S)-3-methylpiperazin-1-yl]methyl}-1-oxo-1,2-dihydroisoquinolin-6-yl]-4-methylbenzamide hydrochloride] as the compound, how does the IC50 read?
Answer: 0.794 nM

Question: With `Cc1c(F)cc(C(=O)NC2CC2)cc1-c1ccc2c(=O)n(CC(C)(C)CO)cc(CN3CCC[C@@H](N)C3)c2c1` [Example 30, 3-[4-{[(3R)-3-Aminopiperidin-1-yl]methyl}-2-(3-hydroxy-2,2-dimethylpropyl)-1-oxo-1,2-dihydroisoquinolin-6-yl]-N-cyclopropyl-5-fluoro-4-methylbenzamide] as the compound, how does the IC50 read?
Answer: 0.126 nM

Question: Which IC50 does the source give for `Cc1c(F)cc(C(=O)NC2CC2)cc1-c1ccc2c(=O)n(CC(C)(C)CO)cc(CN3CCC(C)(N)CC3)c2c1` [Example 31, 3-{4-[(4-Amino-4-methylpiperidin-1-yl)methyl]-2-(3-hydroxy-2,2-dimethylpropyl)-1-oxo-1,2-dihydroisoquinolin-6-yl}-N-cyclopropyl-5-fluoro-4-methylbenzamide] here?
Answer: 0.794 nM

Question: For `Cc1c(F)cc(C(=O)NC2CC2)cc1-c1ccc2c(=O)n(CC(C)(C)CO)cc(CN3CCN(CCCO)CC3)c2c1` [Example 32, N-Cyclopropyl-3-fluoro-5-[2-(3-hydroxy-2,2-dimethylpropyl)-4-{[4-(3-hydroxypropyl)piperazin-1-yl]methyl}-1-oxo-1,2-dihydroisoquinolin-6-yl]-4-methylbenzamide], which IC50 is on record?
Answer: 0.794 nM

Question: Which IC50 does the source give for `Cc1c(F)cc(C(=O)NC2CC2)cc1-c1ccc2c(=O)n(CC3(CO)CC3)cc(CN3CCNC[C@H]3C)c2c1` [Example 33, N-Cyclopropyl-3-fluoro-5-(2-{[1-(hydroxymethyl)cyclopropyl]methyl}-4-{[(2R)-2-methylpiperazin-1-yl]methyl}-1-oxo-1,2-dihydroisoquinolin-6-yl)-4-methylbenzamide] here?
Answer: 0.158 nM

Question: How did the IC50 turn out when `Cc1c(F)cc(C(=O)NC2CC2)cc1-c1ccc2c(=O)n(CC3(CO)CC3)cc(CN3CCN[C@@H](C)C3)c2c1` [Example 34, N-Cyclopropyl-3-fluoro-5-(2-{[1-(hydroxymethyl)cyclopropyl]methyl}-4-{[(3S)-3-methylpiperazin-1-yl]methyl}-1-oxo-1,2-dihydroisoquinolin-6-yl)-4-methylbenzamide] was run?
Answer: 1 nM

Question: With `Cc1c(F)cc(C(=O)NC2CC2)cc1-c1ccc2c(=O)n(CC(CO)CO)cc(CN3CCN[C@@H](C)C3)c2c1` [Example 35, N-Cyclopropyl-3-fluoro-5-(2-[3-hydroxy-2-(hydroxymethyl)propyl]-4-{[(3S)-3-methylpiperazin-1-yl]methyl}-1-oxo-1,2-dihydroisoquinolin-6-yl)-4-methylbenzamide] as the compound, how does the IC50 read?
Answer: 5.01 nM

Question: How did the IC50 turn out when `Cc1c(F)cc(C(=O)NC2CC2)cc1-c1ccc2c(=O)n(CC(C)(CO)CO)cc(CN3CCN[C@@H](C)C3)c2c1` [Example 36, N-Cyclopropyl-3-fluoro-5-(2-[3-hydroxy-2-(hydroxymethyl)-2-methylpropyl]-4-{[(3S)-3-methylpiperazin-1-yl]methyl}-1-oxo-1,2-dihydroisoquinolin-6-yl)-4-methylbenzamide] was run?
Answer: 3.16 nM

Question: How did the IC50 turn out when `Cc1c(F)cc(C(=O)NC2CC2)cc1-c1ccc2c(=O)n(CC(C)(C)CO)cc(C(C)N3CCC(C)(N)CC3)c2c1` (stereo not shown) [Example 41, 3-{4-[1-(4-Amino-4-methylpiperidin-1-yl)ethyl]-2-(3-hydroxy-2,2-dimethylpropyl)-1-oxo-1,2-dihydroisoquinolin-6-yl}-N-cyclopropyl-5-fluoro-4-methylbenzamide] was run?
Answer: 0.631 nM

Question: Which IC50 does the source give for `Cc1c(F)cc(C(=O)NC2CC2)cc1-c1ccc2c(=O)n(CC(C)(C)CO)cc(C(C)N3CCC[C@@H](N)C3)c2c1` (stereo partly drawn) [Example 42, 3-[4-{1-[(3R)-3-Aminopiperidin-1-yl]ethyl}-2-(3-hydroxy-2,2-dimethylpropyl)-1-oxo-1,2-dihydroisoquinolin-6-yl]-N-cyclopropyl-5-fluoro-4-methylbenzamide] here?
Answer: 0.794 nM

Question: For `Cc1c(F)cc(C(=O)NC2CC2)cc1-c1ccc2c(=O)n(CC(C)(C)CO)cc(C(C)N3CCCNCC3)c2c1` (stereo not shown) [Example 43, N-Cyclopropyl-3-{4-[1-(1,4-diazepan-1-yl)ethyl]-2-(3-hydroxy-2,2-dimethylpropyl)-1-oxo-1,2-dihydroisoquinolin-6-yl}-5-fluoro-4-methylbenzamide], which IC50 is on record?
Answer: 0.501 nM

Question: `Cc1c(F)cc(C(=O)NC2CC2)cc1-c1ccc2c(=O)n(CC(C)(C)CO)cc(C(C)N3CCN[C@@H](CO)C3)c2c1` (stereo partly drawn) [Example 44, N-Cyclopropyl-3-fluoro-5-[2-(3-hydroxy-2,2-dimethylpropyl)-4-{1-[(3R)-3-(hydroxymethyl)piperazin-1-yl]ethyl}-1-oxo-1,2-dihydroisoquinolin-6-yl]-4-methylbenzamide] was tested. Which IC50 did it give?
Answer: 1.26 nM

Question: For `Cc1c(F)cc(C(=O)NC2CC2)cc1-c1ccc2c(=O)n(CC(C)(C)CO)cc(C(C)N3CCN[C@@H](CO)C3)c2c1` (stereo partly drawn) [Example 45, N-Cyclopropyl-3-fluoro-5-[2-(3-hydroxy-2,2-dimethylpropyl)-4-{1-[(3R)-3-(hydroxymethyl)piperazin-1-yl]ethyl}-1-oxo-1,2-dihydroisoquinolin-6-yl]-4-methylbenzamide], which IC50 is on record?
Answer: 0.126 nM

Question: For `Cc1c(F)cc(C(=O)NC2CC2)cc1-c1ccc2c(=O)n(CC(C)(C)CO)cc(S(=O)(=O)N3CCCNCC3)c2c1` [Example 46, N-Cyclopropyl-3-[4-(1,4-diazepan-1-ylsulfonyl)-2-(3-hydroxy-2,2-dimethylpropyl)-1-oxo-1,2-dihydroisoquinolin-6-yl]-5-fluoro-4-methylbenzamide], which IC50 is on record?
Answer: 0.158 nM

Question: How did the IC50 turn out when `Cc1c(F)cc(C(=O)NC2CC2)cc1-c1ccc2c(=O)n(CC3CC3)cc(S(=O)(=O)N3CCNCC3)c2c1` [Example 47, N-Cyclopropyl-3-[2-(cyclopropylmethyl)-1-oxo-4-(piperazin-1-ylsulfonyl)-1,2-dihydroisoquinolin-6-yl]-5-fluoro-4-methylbenzamide] was run?
Answer: 0.251 nM

Question: `Cc1c(F)cc(C(=O)NC2CC2)cc1-c1ccc2c(=O)n(CC3CC3)cc(S(=O)(=O)N3CCN(C)CC3)c2c1` [Example 48, N-Cyclopropyl-3-{2-(cyclopropylmethyl)-4-[(4-methylpiperazin-1-yl)sulfonyl]-1-oxo-1,2-dihydroisoquinolin-6-yl}-5-fluoro-4-methylbenzamide] was tested. Which IC50 did it give?
Answer: 0.398 nM
